Source: patent publication EP4471048A1, “PEPTIDE INHIBITORS OF INTERLEUKIN-23 RECEPTOR” (Zealand Pharma A/S, priority 2023, dated 2024)
Blank lines part the entries; values can stand above or below the compound they belong to. *1 amine or outer side, *2 acyl side, *3 side chain or, on linkers, in order; H or OH if unused. Where a SMILES comes first, the peptide text is derived from it. Bridges are numbered along the chain shown (N, C = ends). [ ]: non-standard residue; d: D form. β3hW = N[C@H](CC(=O)O)Cc1c[nH]c2ccccc12; 2Nal = N[C@@H](Cc1ccc2ccccc2c1)C(=O)O; AEF = NCCOc1ccc(C[C@H](N)C(=O)O)cc1; X1 = O=C(Cc1ccc(CN[*:1])cc1)[*:2]; 3Pal = N[C@@H](Cc1cccnc1)C(=O)O; αMeL = CC(C)C[C@](C)(N)C(=O)O; CH2COCH2 = O=C(C[*:1])C[*:2]; β3hK = NCCCC[C@H](N)CC(=O)O; NMeS = CN[C@@H](CO)C(=O)O; Dab = NCC[C@H](N)C(=O)O

Target: T1, human IL-23R (Homo sapiens, UniProt Q5VWK5)
T1 sequence (Q5VWK5 22-629): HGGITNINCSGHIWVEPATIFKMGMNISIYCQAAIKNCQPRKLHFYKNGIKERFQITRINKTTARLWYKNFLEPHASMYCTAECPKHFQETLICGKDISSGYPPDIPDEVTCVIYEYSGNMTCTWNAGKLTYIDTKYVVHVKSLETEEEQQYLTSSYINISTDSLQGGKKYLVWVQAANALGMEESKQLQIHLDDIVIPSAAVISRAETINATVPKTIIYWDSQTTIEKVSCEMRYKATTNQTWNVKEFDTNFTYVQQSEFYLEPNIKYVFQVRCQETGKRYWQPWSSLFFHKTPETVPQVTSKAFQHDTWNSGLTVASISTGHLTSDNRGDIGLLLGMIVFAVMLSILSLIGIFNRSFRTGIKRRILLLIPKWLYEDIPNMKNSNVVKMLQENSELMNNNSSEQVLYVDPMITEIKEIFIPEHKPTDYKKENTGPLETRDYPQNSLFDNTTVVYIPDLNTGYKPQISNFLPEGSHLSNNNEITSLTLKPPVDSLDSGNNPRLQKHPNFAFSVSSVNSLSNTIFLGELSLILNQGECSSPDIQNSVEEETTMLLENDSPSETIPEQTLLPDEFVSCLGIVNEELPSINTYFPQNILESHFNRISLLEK
Test: biochemical
Conditions: for Emax: read-out: % displacement (hIL-23R NIuc)
Method in brief: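 Membranes from HEK293 cells stably expressing Nluc-tagged human IL-23R were incubated 2 h at room temperature with test compound and a fluorophore-labelled tracer. After substrate addition, loss of BRET (TAMRA over luciferase emission) reported tracer displacement. A 4PL fit gave IC50 values.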

% displacement (hIL-23R NIuc): 100%
IC50: 8.5 nM
Compound: CC[C@H](C)[C@@H]1NC(=O)[C@@H]2CCCCNC(=O)CC[C@@H](C(=O)N[C@@H](CCN)C(=O)N[C@H](Cc3cccnc3)C(N)=O)NC(=O)[C@](C)(C(C)C)NC(=O)[C@H](Cc3ccc4ccccc4c3)NC(=O)[C@H](Cc3ccc(C)cc3)NC(=O)[C@H](CCC(=O)N2)NC(=O)[C@H](CCC(N)=O)NC(=O)[C@H](Cc2c[nH]c3ccccc23)NC(=O)[C@H](C(C)C)NC1=O [Compound 18, K(1c)(6c)^†IVWQE(6c)[F(4-Me)][2-Nal][2-Me-Val]E(1c)[Dab][{d}3-(3-Pyridyl)-Ala]-[NH2]]

IC50: 4.5 nM
Emax: 97%
Compound: CNC(=O)[C@H](Cc1cccnc1)NC(=O)[C@H](CCN)NC(=O)[C@@H]1CCC(=O)N[C@H]2CCCCNC(=O)CC[C@H](NC(=O)[C@H](CCC(N)=O)NC(=O)[C@H](Cc3c[nH]c4ccccc34)NC2=O)C(=O)N[C@@H](Cc2ccc(OCCN)cc2)C(=O)N[C@@H](Cc2ccc3ccccc3c2)C(=O)N[C@@](C)(CC(C)C)C(=O)N1 [Compound 102, [iso-Lys](1c)^t(6c)WQE(6c)[Y(2-aminoethoxy)][2-Nal][2-Me-Leu]E(1c)[Dab][3-(3-Pyridyl)-Ala]-[NHMe]] (KWQE[AEF][2Nal][αMeL]E[Dab][3Pal]-NHMe; lactam 1-4, N-8)

IC50: 0.037 nM
Emax: 98%
Compound: CC(C)C[C@]1(C)NC(=O)[C@H](Cc2ccc3ccccc3c2)NC(=O)[C@H](Cc2ccc(OCCN)cc2)NC(=O)[C@@H]2CCC(=O)N[C@H](CCCCCNC(=O)CC[C@@H](C(=O)N[C@@H](CCN)C(=O)N[C@@H](Cc3cccnc3)C(N)=O)NC1=O)C(=O)N[C@@H]([C@@H](C)O)C(=O)N[C@@H](C(C)C)C(=O)N[C@@H](Cc1c[nH]c3ccccc13)C(=O)N[C@@H](CCC(N)=O)C(=O)N2 [Compound 5, [{d}hLys](1c)(6c)^†TVWQE(6c)[Y(2-aminoethoxy)][2-Nal][2-Me-Leu]E(1c)[Dab][3-(3-Pyridyl)-Ala]-[NH2]]

Second part, the compound before the results:

Compound: CC(C)C[C@]1(C)NC(=O)[C@H](Cc2ccc3ccccc3c2)NC(=O)[C@H](Cc2ccc(OCCN)cc2)NC(=O)[C@@H]2CSCC(=O)CSC[C@H](NC(=O)[C@H](CO)N(C)C(=O)Cc3ccc(cc3)CNC(=O)CC[C@@H](C(=O)N[C@@H](CCN)C(N)=O)NC1=O)C(=O)N[C@@H](Cc1c[nH]c3ccccc13)C(=O)N[C@@H](CCC(N)=O)C(=O)N2 [Ref 141, [4-Aminomethyl-phenylacetyl](1c)*[N-Me-Ser]C(2a)WQC(2a)[Y(2-aminoethoxy)][2-Nal][2-Me-Leu]E(1c)[Dab]-[NH2], reference compound] ([X1][NMeS]CWQC[AEF][2Nal][αMeL]E[Dab]-NH2; linker 3-6 via CH2COCH2; lactam N-10)
% displacement (hIL-23R NIuc): 102%
IC50: 3.5 nM

Compound: CC[C@H](C)[C@@H]1NC(=O)[C@@H]2CCCCNC(=O)CC[C@@H](C(=O)NCCCCCCc3cccnc3)NC(=O)[C@](C)(C(C)C)NC(=O)[C@H](Cc3ccc4ccccc4c3)NC(=O)[C@H](Cc3ccc(OCCN)cc3)NC(=O)[C@H](CCC(=O)N2)NC(=O)[C@H](CCC(N)=O)NC(=O)[C@H](Cc2c[nH]c3ccccc23)NC(=O)[C@H](C(C)C)NC1=O [Compound 29, K(1c)(6c)^†IVWQE(6c)[Y(2-aminoethoxy)][2-Nal][2-Me-Val]E(1c)-[NH-6-(pyridin-3-yl)hexanyl]]
IC50: 480 nM
Emax: 95%

Compound: CNC(=O)[C@H](Cc1cccnc1)NC(=O)[C@H](CCN)NC(=O)[C@@H]1CCC(=O)NCCCC[C@H]2CC(=O)N[C@@H](Cc3c[nH]c4ccccc34)CC(=O)N[C@@H](CCC(N)=O)C(=O)N[C@@H](CCC(=O)N2)C(=O)N[C@@H](Cc2ccc(OCCN)cc2)C(=O)N[C@@H](Cc2ccc3ccccc3c2)C(=O)N[C@@](C)(CC(C)C)C(=O)N1 [Compound 100, [beta-hLys](1c)(6c)^†[beta-hTrp]QE(6c)[Y(2-aminoethoxy)][2-Nal][2-Me-Leu]E(1c)[Dab][3-(3-Pyridyl)-Ala]-[NHMe]] ([β3hK][β3hW]QE[AEF][2Nal][αMeL]E[Dab][3Pal]-NHMe; lactam 1-8, N-4)
IC50: 150 nM
Emax: 97%
